Data as given in BindingDB's records for doi:10.1016/j.bmcl.2015.11.098 (Janssen Pharmaceutica, 2016).

Target: Metabotropic glutamate receptor 5 (Homo sapiens, UniProt P41594)
Assay: Positive allosteric modulation of human mGlu5 expressed in HEK293 cells assessed as glutamate-induced calcium mobilization

Sequence of Metabotropic glutamate receptor 5 (P41594 whole entry): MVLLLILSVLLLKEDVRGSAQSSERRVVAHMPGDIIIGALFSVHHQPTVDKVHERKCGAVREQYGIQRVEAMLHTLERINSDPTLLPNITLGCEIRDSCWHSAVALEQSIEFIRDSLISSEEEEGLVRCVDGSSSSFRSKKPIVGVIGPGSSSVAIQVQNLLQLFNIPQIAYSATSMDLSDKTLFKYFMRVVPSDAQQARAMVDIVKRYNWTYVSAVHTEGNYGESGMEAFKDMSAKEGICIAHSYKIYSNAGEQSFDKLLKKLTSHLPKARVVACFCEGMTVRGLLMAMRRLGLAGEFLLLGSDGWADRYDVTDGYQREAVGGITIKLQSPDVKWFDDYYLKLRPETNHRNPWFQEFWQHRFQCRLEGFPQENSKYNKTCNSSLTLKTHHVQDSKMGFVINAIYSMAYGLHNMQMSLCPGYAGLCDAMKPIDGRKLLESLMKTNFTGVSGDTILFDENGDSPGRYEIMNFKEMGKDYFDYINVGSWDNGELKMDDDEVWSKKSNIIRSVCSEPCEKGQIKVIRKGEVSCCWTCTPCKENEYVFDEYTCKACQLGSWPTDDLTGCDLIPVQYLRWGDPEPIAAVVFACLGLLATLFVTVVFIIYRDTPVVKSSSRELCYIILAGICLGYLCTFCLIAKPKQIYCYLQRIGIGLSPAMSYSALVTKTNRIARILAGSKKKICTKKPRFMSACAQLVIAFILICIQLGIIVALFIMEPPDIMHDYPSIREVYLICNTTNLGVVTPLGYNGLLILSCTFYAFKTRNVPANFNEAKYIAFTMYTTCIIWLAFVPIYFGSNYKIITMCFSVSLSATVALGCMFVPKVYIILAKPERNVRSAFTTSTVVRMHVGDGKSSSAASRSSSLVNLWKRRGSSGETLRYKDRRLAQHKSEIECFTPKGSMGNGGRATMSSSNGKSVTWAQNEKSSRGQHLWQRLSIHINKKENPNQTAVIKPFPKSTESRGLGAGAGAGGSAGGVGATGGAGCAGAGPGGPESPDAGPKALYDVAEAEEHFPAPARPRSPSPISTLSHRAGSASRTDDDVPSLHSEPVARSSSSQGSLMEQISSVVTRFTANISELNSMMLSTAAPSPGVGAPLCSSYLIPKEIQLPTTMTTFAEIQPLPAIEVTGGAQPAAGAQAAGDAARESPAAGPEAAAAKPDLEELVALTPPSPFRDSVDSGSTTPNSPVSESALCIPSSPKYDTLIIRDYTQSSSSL

O=C1c2nc(COc3ccccc3)nn2CCN1c1ccc(F)cc1 was tested, and the EC50 was 2.81 µM.
